Consider 5 molecules from paper PMC10574094, “Discovery of a SHP2 Degrader with In Vivo Anti-Tumor Activity” (Molecules, 2023).

Data set [1] has as its target T1, SHP2 (Homo sapiens, UniProt Q06124).
T1 sequence (Q06124 1-593): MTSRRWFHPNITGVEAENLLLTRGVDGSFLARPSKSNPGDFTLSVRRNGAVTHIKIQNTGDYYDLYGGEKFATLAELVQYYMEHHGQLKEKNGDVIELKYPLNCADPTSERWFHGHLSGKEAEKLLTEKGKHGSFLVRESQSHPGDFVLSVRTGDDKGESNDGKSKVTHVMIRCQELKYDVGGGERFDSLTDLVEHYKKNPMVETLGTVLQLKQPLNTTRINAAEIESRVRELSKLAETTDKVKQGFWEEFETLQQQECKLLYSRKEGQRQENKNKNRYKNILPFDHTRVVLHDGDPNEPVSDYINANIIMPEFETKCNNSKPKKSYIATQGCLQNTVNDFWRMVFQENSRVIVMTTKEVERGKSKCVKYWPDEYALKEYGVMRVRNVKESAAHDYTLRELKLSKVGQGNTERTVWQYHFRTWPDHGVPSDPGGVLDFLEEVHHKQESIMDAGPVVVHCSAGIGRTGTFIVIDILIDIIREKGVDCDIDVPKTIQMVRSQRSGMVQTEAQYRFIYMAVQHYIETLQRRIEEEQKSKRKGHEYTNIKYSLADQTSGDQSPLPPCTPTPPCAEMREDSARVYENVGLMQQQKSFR
In words: SHP2 degradation by Western blotting in HEK293 cells. Set-up: endogenous in cells; host or cells: HEK293. The class given is cell-based. The procedure: HEK293, SKBR3, U2OS, MCF7 and A549 cells were grown in DMEM supplemented with 10% FBS, penicillin (50 units/mL), and streptomycin (50 μg/mL) in a 37 °C incubator containing 5% CO2. […] For western-blot analysis, protein samples were separated by SDS-PAGE, transferred to nitrocellulose membranes, and incubated overnight at 4 °C with corresponding primary antibodies diluted in 5% BSA in phosphate-buffered saline Tween (PBST). SuperSignal™ West Pico PLUS (PI34580; Thermo Scientific) was used to visualize the antibodies in the bioanalytical imaging system (Azure Biosystems c500). […] Anti-PTP1B (ab244207) antibody was purchased from Abcam. For colony formation assay, a total of approximately 200–500 cells were seeded to each well in a 12-well plate.
Supplemental Figures, Schemes, and Tables:
Figure S1. Western blots of degradation assay for PROTAC screening. (A) Degradation assay of
compo un ds i n Table 1 at 1 μM fo r 16 hours in H EK29 3 cells. (B) Degradation assay of compounds in Table
1 at 10 μM for 16 hours in HEK293 cells. (C) Degradation assay of compounds in Table 2 at 1 μM for 16

The target of another data set is T2, full-length SHP2 (1-528) (Homo sapiens, UniProt Q06124).
T2 construct: The SHP2 protein (Aa 1–528) was cloned into a pET-21a(+) vector; His; made in house; host or cells: E. coli BL21(DE3)
T2 sequence (Q06124 1-528): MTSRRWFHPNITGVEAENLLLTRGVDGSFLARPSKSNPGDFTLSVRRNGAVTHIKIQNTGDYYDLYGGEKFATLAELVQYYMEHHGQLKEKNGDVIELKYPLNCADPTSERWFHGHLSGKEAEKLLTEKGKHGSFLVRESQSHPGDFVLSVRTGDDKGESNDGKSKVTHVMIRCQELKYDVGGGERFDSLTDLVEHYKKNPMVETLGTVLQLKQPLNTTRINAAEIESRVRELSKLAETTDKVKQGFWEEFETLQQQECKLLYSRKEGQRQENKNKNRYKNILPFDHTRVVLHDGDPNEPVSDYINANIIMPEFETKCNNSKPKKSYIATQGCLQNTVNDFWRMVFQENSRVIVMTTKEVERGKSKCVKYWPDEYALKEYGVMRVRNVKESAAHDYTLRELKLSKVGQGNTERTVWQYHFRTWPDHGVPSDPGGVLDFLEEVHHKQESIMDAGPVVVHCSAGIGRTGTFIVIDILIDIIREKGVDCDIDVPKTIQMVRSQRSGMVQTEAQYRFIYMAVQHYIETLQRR
In words: SHP2 allosteric inhibition assay (DiFMUP substrate). The class given is biochemical. To be noted: full length SHP2, enzymatic assay. As to the method:
The SHP2 protein (Aa 1–528) was cloned into a pET-21a(+) vector. Bacterial BL21(DE3) (Novagen) was used as an expression host, and the induction of protein expression was carried out in LB media with 1 mM IPTG at 18 °C overnight. Cell pellets were stored at −80 °C for subsequent protein purification. Protein purification was conducted at 4 °C. Frozen cell pellets were lysed by sonication in 40 mL cold lysis buffer (50 mM Tris-HCl, pH 8.0, 150 mM NaCl, 5 mM imidazole, and 1 mM PMSF) per liter cell pellet. Cell lysates were clarified by centrifuging for 15 min at 6000 rpm. The supernatant was incubated with HisPur Ni-NTA resin (Thermo Scientific, Waltham, MA, USA) for 2 h, and then packed onto a column and washed with 50 resin volume of buffer A (50 mM Tris-HCl, pH 8.0, 500 mM NaCl, 5 mM imidazole). The HIS-tagged proteins were eluted with Buffer B (50 mM Tris-HCl, pH = 8.0, 500 mM NaCl, 300 mM imidazole,). Pooled HIS-protein-containing fractions were concentrated, loaded onto a HiLoad 26/600 Superdex 75 column (GE Healthcare Biosciences, Piscataway, NJ, USA), and eluted with storage buffer (50 mM Tris-HCl, pH 8.0, 150 mM NaCl, 1 mM DTT, 10% glycerol). Proteins used for inhibition assays were purified using Ni-NTA resin (Qiagen, Hilden, Germany) followed by size exclusion column chromatography (ÄKTA pure, Cytiva, Marlborough, MA, USA) and the purity was determined to be >95% by SDS-PAGE and Coomassie staining. The protein was aliquoted and stored at −80 °C.
The catalytic activity of SHP2 (1-528) was assayed with 6,8-Difluoro-4-Methylumbelliferyl Phosphate (DiFMUP, Invitrogen, cat# D6567) as a substrate in 3,3-Dimethylglutaric acid (DMG) buffer (50 mM DMG, pH 7.0, 1 mM EDTA, 18 mM NaCl, 0.01% Triton X-100) at 25 °C. To determine the IC50 values, the assays were performed in 96-well plates (Corning Costar 3915). Series diluted compounds were incubated with 0.5 nM of SHP2 and 0.5 μM of peptide IRS1_pY1172(dPEG8)pY1222 (sequence H2N-LN(pY)IDLDLV(dPEG8)LST(pY)ASINFQK-amide). After 30 min incubation at room temperature, the substrate DiFMUP was added to the reaction (200 μM final concentration, total reaction volume is […]) and incubated at 25 °C for 10 min. The reaction was then quenched by adding 40 μL of 160 μM bpV(Phen) (Sigma–Aldrich, cat# SML0889) solution. The fluorescence signal was monitored with a CLARIOstar Plus Microplate Spectrophotometer (BMG Labtech) using excitation and emission wavelengths of 340 and 450 nm, respectively. The inhibitordose-response curves were analyzed using normalized IC50 regression curve fitting with control-based normalization. Data were fitted using Prism GraphPad 9.2.0.

Data set [2] concerns the target T1, SHP2. Set-up: endogenous in cells; host or cells: KYSE-520. To be noted: cited from earlier work.
The next data set relates to pERK1/2. Set-up: method as in PMID 32910655. To be noted: cited from earlier work.
Data set [3] in a line: Decomposition of CRBN-based PROTACs in DMEM media or water (LCMS). Type of data set: physicochemical. Conditions: 10 μM, within 3 h, DMEM cell media or water, room temperature. The source says: With the desired SHP2 ligand in hand, we synthesized an initial set of PROTAC molecules using pomalidomide or lenalidomide as a ligand of the E3 ligase Cereblon (CRBN), which is one of the most productive E3 in the development of PROTACs. […] This observation is consistent with the fact that phthalimides can be smoothly hydrolyzed in the presence of water and an organic base, as these PROTAC compounds contain a basic aliphatic amino group. Given that this free amino group in the allosteric inhibitors is essential for the binding affinity to SHP2 [28], we reasoned that pomalidomide or lenalidomide-based CRBN ligands are not suitable for the development of in vivo efficacious SHP2 degraders in this study due to stability considerations.
Scheme S1. Decomposition of CRBN-based PROTACs in the presence of water. 10 μM compound 11 or
12 was incubated in DMEM media or water for 3 hours. The fina l co ncentrations of the compounds at
the endpoint were quantified by LCMS.
Table S1. Enzymatic IC50s of first generation SHP2 PROTACs against full length SHP2
Compound ID Linker Structure Linker Length (atom) SHP2 IC50 (n M) […]

Consider `Cc1ncsc1-c1ccc([C@H](C)NC(=O)[C@@H]2C[C@@H](O)CN2C(=O)[C@@H](NC(=O)CCCCCCCCCCCNC(=O)CCCCCC2(CN)CCN(c3cnc(Sc4cccc(Cl)c4Cl)c(N)n3)CC2)C(C)(C)C)cc1` [SC11, (2S,4R)-1-((S)-2-(12-(6-(1-(6-amino-5-((2,3-dichlorophenyl)thio)pyrazin-2-yl)-4-(aminomethyl)piperidin-4-yl)hexanamido)dodecanamido)-3,3-dimethylbutanoyl)-4-hydroxy-N-((S)-1-(4-(4-methylthiazol-5-yl)phenyl)ethyl)pyrrolidine-2-carboxamide], for which the “Degradation at 1 μM” value at SHP2 [1] (HEK293 cells, 16 h treatment, 1 μM) was 27%. Besides, the “Degradation at 10 μM” value at SHP2 [1] (HEK293 cells, 16 h treatment, 10 μM) is 64%. Further, half-maximal inhibition against full-length SHP2 (1-528) (IC50) was put at 0.105 ± 0.0156 µM.
For `CCCCC1(CN)CCN(c2cnc(Sc3ccnc(N)c3Cl)c(N)n2)CC1` [compound 2], on SHP2 [2], the IC50 is 0.017 µM.
In the case of `CC1(CN)CCN(c2cnc(Sc3cccc(Cl)c3Cl)c(N)n2)CC1` [compound 3, reference compound], the “effect on P9-induced SHP2 degradation” value on SHP2 [1] (HEK293, 16 h, 250 nM P9 in combination with 1 µM 3, 10 µM MG132, 1 µM MLN4924, 40 µM VHL-2 or 40 µM Lenalidomide) was “prohibited P9-induced SHP2 degradation”. Also, the IC50 with pERK1/2 was 0.088 µM.
With `NCC1(CCCCCC(=O)NCCCCCC(=O)Nc2cccc3c2C(=O)N(C2CCC(=O)NC2=O)C3=O)CCN(c2cnc(Sc3cccc(Cl)c3Cl)c(N)n2)CC1` (centres unmarked) [compound 11, 6-(1-(6-amino-5-((2,3-dichlorophenyl)thio)pyrazin-2-yl)-4-(aminomethyl)piperidin-4-yl)-N-(6-((2-(2,6-dioxopiperidin-3-yl)-1,3-dioxoisoindolin-4-yl)amino)-6-oxohexyl)hexanamide], the “compound converted into ring-opened products 13” value in data set [3] is on record as “over 90%”.
On the same count and under the same terms, in the case of `NCC1(CCCCCC(=O)NCCCCCC(=O)Nc2cccc3c2CN(C2CCC(=O)NC2=O)C3=O)CCN(c2cnc(Sc3cccc(Cl)c3Cl)c(N)n2)CC1` (centres unmarked) [compound 12, 6-(1-(6-amino-5-((2,3-dichlorophenyl)thio)pyrazin-2-yl)-4-(aminomethyl)piperidin-4-yl)-N-(6-((2-(2,6-dioxopiperidin-3-yl)-1-oxoisoindolin-4-yl)amino)-6-oxohexyl)hexanamide] it was “over 90%”.
